Test results as given in ChEMBL document CHEMBL2380200, “Enantioselective inhibition of microbial lipolytic enzymes by nonracemic monocyclic enolphosphonate analogues of cyclophostin” (J Med Chem, 2013).

Experiments:
[1] = tested on: Mycobacterium tuberculosis; test: Inhibition of Mycobacterium tuberculosis monoacylglycerol lipase Rv0183 preincubated with enzyme measured after 30 mins by pH-stat technique
[2] = target: T1, Cutinase 1 (Fusarium vanettenii) (UniProt P00590); test: Inhibition of Fusarium solani pisi cutinase preincubated with enzyme measured after 30 mins by pH-stat technique
T1 sequence (whole entry): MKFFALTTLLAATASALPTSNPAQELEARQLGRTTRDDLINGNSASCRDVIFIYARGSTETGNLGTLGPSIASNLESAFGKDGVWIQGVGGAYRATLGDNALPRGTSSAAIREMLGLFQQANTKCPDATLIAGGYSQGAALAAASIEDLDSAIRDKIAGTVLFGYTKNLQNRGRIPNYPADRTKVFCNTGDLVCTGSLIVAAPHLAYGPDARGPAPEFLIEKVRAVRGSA

[3] = tested on: Mycobacterium tuberculosis; test: Inhibition of Mycobacterium tuberculosis triacylglycerol lipase LipY at 20 molar excess compound concentration preincubated with enzyme measured after 30 mins by pH-stat technique relative to control
[4] = tested on: Mycobacterium tuberculosis; test: Inhibition of Mycobacterium tuberculosis monoacylglycerol lipase Rv0183 at 20 molar excess compound concentration preincubated with enzyme measured after 30 mins by pH-stat technique relative to control
[5] = target: T1, Cutinase 1 (Fusarium vanettenii); test: Inhibition of Fusarium solani pisi cutinase at 20 molar excess compound concentration preincubated with enzyme measured after 30 mins by pH-stat technique relative to control
[6] = tested on: Mycobacterium tuberculosis; test: Inhibition of Mycobacterium tuberculosis triacylglycerol lipase LipY preincubated with enzyme measured after 30 mins by pH-stat technique

SMILES	XI50 [1] [molar excess]	XI50 [2] [molar excess]	inhibition [3] [%]	inhibition [4] [%]	inhibition [5] [%]	XI50 [6] [molar excess]
CCCCCCCCCC[C@H]1CC[P@@](=O)(OC)OC(C)=C1C(=O)OC	11.3	97.3	39.8	78.7	22.5	25.9
CCCCCCCCCC[C@H]1CC[P@](=O)(OC)OC(C)=C1C(=O)OC	1.16	2.52	42.1	96.6	93.2	20
CCCCCCCCCC[C@@H]1CC[P@@](=O)(OC)OC(C)=C1C(=O)OC	7.61	3.38	82.8	87.7	91.8	1.64
CCCCCCCCCC[C@@H]1CC[P@](=O)(OC)OC(C)=C1C(=O)OC	1.24	4.07	49.6	93.1	86.5	15.4
